Measured values from article PMC8672067, “Inhibitors of the Bub1 spindle assembly checkpoint kinase: synthesis of BAY-320 and comparison with 2OH-BNPP1” (Royal Society Open Science, 2021).

Target: T1, Bub1 (Homo sapiens, UniProt O43683)
T1 construct: full-length Bub1 with an N-terminal GFP tag (GFP-Bub1), purified from HEK-293 cells on beads
Test: in vitro kinase assay with purified GFP-Bub1 and H2A, H2ApT120 immunoblot, […] ATP
Type: biochemical

T1 sequence (O43683 whole entry): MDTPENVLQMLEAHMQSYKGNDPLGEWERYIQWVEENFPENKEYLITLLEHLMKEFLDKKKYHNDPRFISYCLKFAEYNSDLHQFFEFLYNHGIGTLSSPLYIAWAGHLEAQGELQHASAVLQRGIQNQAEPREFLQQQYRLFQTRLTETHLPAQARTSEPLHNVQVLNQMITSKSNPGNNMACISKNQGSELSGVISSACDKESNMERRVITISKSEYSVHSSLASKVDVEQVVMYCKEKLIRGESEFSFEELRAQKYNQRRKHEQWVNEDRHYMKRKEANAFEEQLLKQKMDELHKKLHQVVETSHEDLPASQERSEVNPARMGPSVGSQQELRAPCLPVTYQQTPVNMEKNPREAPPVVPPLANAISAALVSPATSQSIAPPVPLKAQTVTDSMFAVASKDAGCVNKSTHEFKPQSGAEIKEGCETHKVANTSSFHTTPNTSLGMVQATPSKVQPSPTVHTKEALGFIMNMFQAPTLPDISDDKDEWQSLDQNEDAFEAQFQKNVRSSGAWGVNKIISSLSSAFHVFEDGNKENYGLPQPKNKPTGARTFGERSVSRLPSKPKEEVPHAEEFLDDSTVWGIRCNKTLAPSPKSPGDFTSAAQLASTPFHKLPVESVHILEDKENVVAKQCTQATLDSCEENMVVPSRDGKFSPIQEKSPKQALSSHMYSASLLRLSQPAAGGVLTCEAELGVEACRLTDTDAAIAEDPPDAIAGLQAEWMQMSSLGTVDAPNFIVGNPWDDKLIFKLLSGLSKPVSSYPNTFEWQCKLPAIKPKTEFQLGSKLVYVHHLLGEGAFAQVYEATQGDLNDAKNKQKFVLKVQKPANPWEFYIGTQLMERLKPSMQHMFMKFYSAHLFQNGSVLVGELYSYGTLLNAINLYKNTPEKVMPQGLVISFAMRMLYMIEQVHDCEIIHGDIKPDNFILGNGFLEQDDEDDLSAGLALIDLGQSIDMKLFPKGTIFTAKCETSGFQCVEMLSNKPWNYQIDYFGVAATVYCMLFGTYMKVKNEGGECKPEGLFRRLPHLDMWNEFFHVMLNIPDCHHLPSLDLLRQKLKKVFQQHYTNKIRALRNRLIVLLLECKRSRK

| Structure (SMILES) | IC50 [nM] |
| --- | --- |
| CCOc1cc(F)c(Cn2nc(-c3ncc(OC)c(Nc4ccncc4)n3)c(C)c2C2CC2)c(F)c1 [compound 11, 2-[5-Cyclopropyl-1-(4-ethoxy-2,6-difluorobenzyl)-4-methyl-1H-pyrazol-3-yl]-5-methoxy-N-(pyridine-4-yl)pyrimidin-4-amine] | 560 |
| CC(C)(C)n1nc(Cc2ccccc2O)c2c(N)ncnc21 [2OH-BNPP1] | 600 |
